{
  "source": "patent US20130005650A1",
  "about": "(priority 2011, published 2013)",
  "key": {"[1]": {"molecular_target": "T1, Aβ42 fibrillogenesis (amyloid peptide) (Homo sapiens, UniProt P05067)", "T1 construct": "purchased Invitrogen (Camarillo, Calif.)", "T1 sequence (P05067 672-713 limits assumed)": "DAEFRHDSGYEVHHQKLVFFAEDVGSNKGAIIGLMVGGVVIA", "experiment": "Congo Red spectrophotometric assay of amyloid fibrillogenesis", "assay_type": "biochemical", "from_the_text": "In addition, the inhibition of the oligomerization of amyloid peptide (inhibition of amyloid fibrillogenesis) can be estimated by the method described by Klunk, et al. using Congo Red (Klunk, W. E., Jacob, R. F., Mason, R. P. (1999) “Quantifying amyloid β-peptide aggregation using the congo red-Aβ spectrophotometric assay” Anal. Biochem. 266:66-76).\nThe inhibition of the oligomerization of amyloid peptide was estimated by the method described by Klunk, et al. using Congo Red (Klunk, W. E., Jacob, R. F., Mason, R. P. (1999) “Quantifying amyloid β-peptide aggregation using the congo red-Aβ spectrophotometric assay” Anal. Biochem. 266, 66-76). Briefly, amyloid peptides were prepared in 40 μM in Tris-Acetate (40 mM:8 mM) buffer. Acriflavine HCl to be tested for inhibition of fibrillogenesis was dissolved in phosphate buffered saline, and then diluted 100 fold into Tris-Acetate buffer. Aliquots of 100 μl of amyloid peptide were incubated with acriflavine at room temperature for 5 days before measuring the absorbance. BSA was included in the buffer as a negative control. […] The absorbance of Congo Red at 541 nm was read using a Perkin-Elmer Victor3 1420 Multilabel Counter. The inhibition of oligomerization was calculated using the following formula: Inhibition=(Abs541 of sample-Abs541 of control)/(Abs541 of Amyloid peptide-Abs541 of BSA)."}, "microorganisms": {"tested_on": "microorganisms", "settings": "generally; cited from earlier work"}, "[2]": {"settings": "cited from earlier work"}, "[3]": {"molecular_target": "yeast prion protein Sup-NM (Saccharomyces cerevisiae, UniProt P05453)", "sequence (P05453 1-254 limits assumed)": "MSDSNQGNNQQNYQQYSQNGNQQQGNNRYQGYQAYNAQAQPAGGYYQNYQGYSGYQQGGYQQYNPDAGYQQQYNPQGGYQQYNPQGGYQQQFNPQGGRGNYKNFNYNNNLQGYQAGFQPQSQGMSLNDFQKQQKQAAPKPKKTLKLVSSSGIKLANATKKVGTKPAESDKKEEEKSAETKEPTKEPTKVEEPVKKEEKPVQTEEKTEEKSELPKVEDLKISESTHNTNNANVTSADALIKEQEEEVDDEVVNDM", "assay_type": "biochemical", "settings": "thioflavin T fluorescence, 25° C."}, "[4]": {"tested_on": "PSI^+ induction in yeast cells", "experiment": "PSI^+ induction assay in yeast", "assay_type": "cell-based", "settings": "FIG. 2; 24 h, 50 μM copper sulfate, 30° C."}, "amyloid fibrils": {"molecular_target": "T2, amyloid fibrils (Homo sapiens, UniProt P05067)", "T2 construct": "effective to reduce or reverse amyloid fibril formation (Aβ42 fibrillogenesis) in vitro", "T2 sequence (P05067 672-713 limits assumed)": "as the sequence (P05067 672-713 limits assumed) above", "experiment": "Incubation of acriflavine with amyloid fibrils (fibril dissociation)", "assay_type": "biochemical", "settings": "in vitro"}, "[5]": {"settings": "human; cited from earlier work"}},
  "data": [
    {"substance": "Acriflavine HCl", "values": [
      {"measurement": "inhibition of amyloid fibrillogenesis", "setting": "[1]; FIG. 1, Aβ42", "value": "concentration-dependent inhibition"},
      {"measurement": "IC50 for inhibition of fibrillogenesis", "setting": "[1]; amyloid peptide 40 μM, room temperature, 5 days, Congo Red Abs 541 nm", "value": "approximately 1.7 μg/mL"}
    ]},
    {"substance": "Acriflavine neutral", "values": [
      {"measurement": "concentration inhibiting the growth of microorganisms", "setting": "microorganisms", "value": "10^−4 to 10^−5 M"},
      {"measurement": "toxicity", "setting": "[2]; clinically used dosage range", "value": "low toxicity"},
      {"measurement": "effect on hematopoietic system and liver", "setting": "[2]; repetitive administrations for a prolonged period", "value": "does not suppress the hematopoietic system, nor damage the liver"}
    ]},
    {"substance": "acriflavine", "values": [
      {"measurement": "inhibition of amyloid formation of yeast prion protein Sup-NM", "setting": "[3]", "value": "inhibit in a dose-dependent manner"},
      {"measurement": "inhibition of PSI^+ induction in yeast cells", "setting": "[4]", "value": "concentration dependent inhibition"},
      {"measurement": "amount of amyloid peptide monomer after incubation with amyloid fibrils", "setting": "amyloid fibrils", "value": "increase in the amount of amyloid peptide monomer"},
      {"measurement": "crossing of the blood-brain barrier", "setting": "[5]", "value": "able to cross the blood-brain barrier"}
    ]}
  ]
}
